Measured values as given in patent US8394969B2, “Cyclic benzimidazole derivatives useful as anti-diabetic agents” (Merck Sharp & Dohme Corp., priority 2008, dated 2013).
Structures can show the parent of a compound that is named as a salt.

molecular target: recombinant human AMPK complex 1 (containing α1β1γ1) (Homo sapiens, UniProt Q13131+Q9Y478); assay: […] (in vitro AMPK activation assay); format: biochemical; conditions: read-out: % Maximum AMP Activation of human AMPK Complex 1, recombinant human AMPK complex 1 (α1β1γ1); basal activity subtracted
Sequence (Q13131 whole entry): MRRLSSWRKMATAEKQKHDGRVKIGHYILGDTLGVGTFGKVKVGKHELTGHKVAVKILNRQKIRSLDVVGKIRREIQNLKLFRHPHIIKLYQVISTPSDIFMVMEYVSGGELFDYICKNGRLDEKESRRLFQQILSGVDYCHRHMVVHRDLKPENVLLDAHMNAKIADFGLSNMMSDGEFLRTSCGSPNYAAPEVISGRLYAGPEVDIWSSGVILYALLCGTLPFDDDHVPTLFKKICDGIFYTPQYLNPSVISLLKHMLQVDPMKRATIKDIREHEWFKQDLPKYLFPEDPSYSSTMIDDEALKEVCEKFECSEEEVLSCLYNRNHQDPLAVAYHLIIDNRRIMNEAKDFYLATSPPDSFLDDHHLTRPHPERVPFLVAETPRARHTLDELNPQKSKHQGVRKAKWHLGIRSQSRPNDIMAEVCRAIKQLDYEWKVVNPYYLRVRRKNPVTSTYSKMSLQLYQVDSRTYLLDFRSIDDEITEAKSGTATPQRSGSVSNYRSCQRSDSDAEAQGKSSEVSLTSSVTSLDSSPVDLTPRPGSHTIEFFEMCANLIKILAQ
Sequence (Q9Y478 whole entry): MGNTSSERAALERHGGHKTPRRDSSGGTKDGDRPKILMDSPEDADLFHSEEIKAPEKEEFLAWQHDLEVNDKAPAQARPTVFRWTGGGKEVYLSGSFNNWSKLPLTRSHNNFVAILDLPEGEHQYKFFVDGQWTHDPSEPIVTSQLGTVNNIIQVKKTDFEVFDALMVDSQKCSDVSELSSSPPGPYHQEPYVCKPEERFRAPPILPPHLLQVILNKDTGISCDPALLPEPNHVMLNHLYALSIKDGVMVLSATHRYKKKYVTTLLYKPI
Sequence (P54619 whole entry partner): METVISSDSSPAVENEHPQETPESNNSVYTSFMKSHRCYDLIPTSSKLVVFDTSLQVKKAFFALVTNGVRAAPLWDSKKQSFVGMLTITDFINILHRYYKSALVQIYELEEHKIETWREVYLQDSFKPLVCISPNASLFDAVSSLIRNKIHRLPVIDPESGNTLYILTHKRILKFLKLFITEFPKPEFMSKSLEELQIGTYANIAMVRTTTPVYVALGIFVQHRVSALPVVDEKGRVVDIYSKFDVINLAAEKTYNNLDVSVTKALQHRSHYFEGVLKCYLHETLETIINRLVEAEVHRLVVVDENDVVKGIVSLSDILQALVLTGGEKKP

**Q.** For `Cc1ccc(Oc2nc3cc(-c4ccc(OC(F)(F)F)cc4)c(Cl)cc3[nH]2)cc1C(=O)O` [Example 363, Ammonium 5-({6-chloro-5-[4-(trifluoromethoxy)phenyl]-1H-benzimidazol-2-yl}oxy)-2-methylbenzoate], which Emax is on record?
**A.** > 80%

**Q.** How did the Emax turn out when `Cc1ccc(Oc2nc3cc(-c4cccc(N(C)C)c4)c(Cl)cc3[nH]2)cc1C(=O)O` [Example 346, Ammonium 5-({6-chloro-5-[3-(dimethylamino)phen-yl]-1H-benzimidazol-2-yl}oxy)-2-methylbenzoate] was run?
**A.** > 80%

same assay, conditions: recombinant human AMPK complex 1 (α1β1γ1); basal activity subtracted; read-out: % Maximum AMP Activation of human AMPK Complex 1

**Q.** With `Cc1ccc(Oc2nc3cc(-c4ccc(C(=O)N(C)C)cc4)c(Cl)cc3[nH]2)cc1C(=O)O` [Example 241, 5-[6-Chloro-5-(4-dimethylcarbamoyl-phenyl)-1H-benzoimidazol-2-yloxy]-2-methyl-benzoic acid] as the compound, how does the Emax read?
**A.** > 80%

**Q.** `COC(=O)c1cc(Oc2nc3cc(C#Cc4cccc(C)c4)c(Cl)cc3[nH]2)ccc1C` [Example 100, 5-(6-Chloro-5-m-tolylethynyl-1H-benzoimidazol-2-yloxy)-2-methyl-benzoic acid methyl ester] was tested. Which Emax did it give?
**A.** > 80%

**Q.** How did the Emax turn out when `Cc1ccc(Oc2nc3cc(-c4ccc5c(c4)CNC5=O)c(Cl)cc3[nH]2)cc1C(=O)O` [Example 305, 5-[6-Chloro-5-(1-oxo-2,3-dihydro-1H-isoindol-5-yl)-1H-benzoimidazol-2-yloxy]-2-methyl-benzoic acid] was run?
**A.** > 80%

**Q.** With `CCCc1ccc(-c2cc3nc(Oc4ccc(C)c(C(=O)O)c4)[nH]c3cc2Cl)cc1` [Example 347, 2-(3-carboxy-4-methylphenoxy)-6-chloro-5-(4-propylphenyl)-1H-3,1-benzimidazol-3-ium trifluoroacetate] as the compound, how does the Emax read?
**A.** > 80%

**Q.** Which Emax does the source give for `COC(=O)c1cc(Oc2nc3cc(C#Cc4ccccc4F)c(Cl)cc3[nH]2)ccc1C` [Example 119, 5-[6-Chloro-5-(2-fluoro-phenylethynyl)-1H-benzoimidazol-2-yloxy]-2-methyl-benzoic acid methyl ester] here?
**A.** > 80%

**Q.** With `Cc1ccc(Oc2nc3cc(C#Cc4ccc(-c5ncc[nH]5)cc4)c(Cl)cc3[nH]2)cc1C(=O)O` [Example 73, 5-{6-Chloro-5-[4-(1H-imidazol-2-yl)-phenylethynyl]1H-benzoimidazol-2-yloxy}-2-methyl-benzoic acid] as the compound, how does the Emax read?
**A.** > 80%

**Q.** How did the Emax turn out when `COc1ccc(C(=O)O)cc1Oc1nc2cc(-c3ccc(-c4ccccc4)cc3)c(Cl)cc2[nH]1` [Example 211, 3-(5-Biphenyl-4-yl-6-chloro-1H-benzoimidazol-2-yloxy)-4-methoxy-benzoic acid] was run?
**A.** > 80%

**Q.** For `COC(=O)c1cc(Oc2nc3cc(C#Cc4ccc(OC(C)=O)cc4)c(Cl)cc3[nH]2)ccc1C` [Example 117, 5-[5-(4-Acetoxy-phenylethynyl)-6-chloro-1H-benzoimidazol-2-yloxy]-2-methyl-benzoic acid methyl ester], which Emax is on record?
**A.** > 80%

**Q.** How did the Emax turn out when `Cc1ccc(Oc2nc3cc(C#Cc4ccc(-c5cccnc5)cc4)c(Cl)cc3[nH]2)cc1C(=O)O` [Example 70, 5-[6-Chloro-5-(4-pyridin-3-yl-phenylethynyl)-1H-benzoimidazol-2-yloxy]-2-methyl-benzoic acid] was run?
**A.** > 80%

**Q.** `Cc1ccc(Oc2nc3cc(-c4ccc(C5CCCCC5)cc4)c(Cl)cc3[nH]2)cc1C(=O)O` [Example 357, 5-[6-Chloro-5-(4-cyclohexyl-phenyl)-1H-benzoimidazol-2-yloxy]-2-methyl-benzoic acid] was tested. Which Emax did it give?
**A.** > 80%

**Q.** Which Emax does the source give for `Cc1ccc(Oc2nc3cc(-c4ccc5c(c4)cc(CO)n5C)c(Cl)cc3[nH]2)cc1C(=O)O` [Example 274, 5-[6-Chloro-5-(2-hydroxymethyl-1-methyl-1H-indol-5-yl)-1H-benzoimidazol-2-yloxy]-2-methyl-benzoic acid] here?
**A.** > 80%

**Q.** With `Cc1ccc(Oc2nc3cc(-c4ccc5c(ccn5CC(F)(F)F)c4)c(Cl)cc3[nH]2)cc1C(=O)O` [Example 351, 5-{6-Chloro-5-[1-(2,2,2-trifluoro-ethyl)-1H-indol-5-yl]-1H-benzoimidazol-2-yloxy}-2-methyl-benzoic acid] as the compound, how does the Emax read?
**A.** > 80%

**Q.** How did the Emax turn out when `Cc1ccc(Oc2nc3cc(-c4ccc5[nH]ncc5c4)c(Cl)cc3[nH]2)cc1C(=O)O` [Example 153, 5-[6-Chloro-5-(1H-indazol-5-yl)-1H-benzoimidazol-2-yloxy]-2-methyl-benzoic acid] was run?
**A.** > 80%

**Q.** With `NC(=O)c1ccc(Oc2nc3cc(-c4ccc(-c5ccccc5)cc4)c(Cl)cc3[nH]2)cc1` [Example 30, 4-(5-Biphenyl-4-yl-6-chloro-1H-benzoimidazol-2-yloxy)-benzamide] as the compound, how does the Emax read?
**A.** > 80%

**Q.** For `CC(=O)Nc1cccc(Oc2nc3cc(-c4ccc(-c5ccccc5)cc4)c(Cl)cc3[nH]2)c1` [Example 3, N-[3-(5-Biphenyl-4-yl-6-chloro-1H-benzoimidazol-2-yloxy)-phenyl]-acetamide], which Emax is on record?
**A.** > 80%

**Q.** For `Cc1ccc(Oc2nc3cc(C#Cc4ccc(C(O)C5CC5)cc4)c(Cl)cc3[nH]2)cc1C(=O)O` (stereo not drawn) [Example 88, 5-{6-Chloro-5-[4-(cyclopropyl-hydroxy-methyl)-phenylethynyl]-1H-benzoimidazol-2-yloxy}-2-methyl-benzoic acid], which Emax is on record?
**A.** > 80%

**Q.** `CCn1ccc2cc(-c3cc4nc(Oc5ccc(C)c(C(=O)O)c5)[nH]c4cc3Cl)ccc21` [Example 254, 5-[6-Chloro-5-(1-ethyl-1H-indol-5-yl)-1H-benzoimidazol-2-yloxy]-2-methyl-benzoic acid] was tested. Which Emax did it give?
**A.** > 80%

**Q.** With `Cc1ccc(Oc2nc3cc(C#Cc4cccc(O)c4)c(Cl)cc3[nH]2)cc1C(=O)O` [Example 124, 5-[6-Chloro-5-(3-hydroxy-phenylethynyl)-1H-benzoimidazol-2-yloxy]-2-methyl-benzoic acid] as the compound, how does the Emax read?
**A.** > 80%

**Q.** For `Cc1ccc(Oc2nc3cc(-c4ccc(-c5ccccc5Cl)cc4)c(Cl)cc3[nH]2)cc1C(=O)O` [Example 191, 5-{[6-chloro-5-(2′-chlorobiphenyl-4-yl)-1H-benzimidazol-2-yl]oxy}-2-methylbenzoic acid], which Emax is on record?
**A.** > 80%

**Q.** With `Cc1ccc(Oc2nc3cc(-c4ccc(-c5ccccc5F)cc4)c(Cl)cc3[nH]2)cc1C(=O)O` [Example 192, 5-{[6-chloro-5-(2′-fluorobiphenyl-4-yl)-1H-benzimidazol-2-yl]oxy}-2-methylbenzoic acid] as the compound, how does the Emax read?
**A.** > 80%

**Q.** `COc1cc(-c2cc3nc(Oc4ccc(C)c(C(=O)O)c4)[nH]c3cc2Cl)ccc1O` [Example 255, 2-(3-carboxy-4-methylphenoxy)-6-chloro-5-(4-hydroxy-3-methoxyphenyl)-1H-3,1-benzimidazol-3-ium trifluoroacetate] was tested. Which Emax did it give?
**A.** > 80%

**Q.** `COC(=O)c1cc(Oc2nc3cc(-c4ccc(-c5ccccc5)cc4)c(Cl)cc3[nH]2)cc(C)c1C(=O)OC` [Example 15, 5-(5-Biphenyl-4-yl-6-chloro-1H-benzoimidazol-2-yloxy)-3-methyl-phtalic acid dimethyl ester] was tested. Which Emax did it give?
**A.** > 80%

**Q.** Which Emax does the source give for `COC(=O)c1cc(Oc2nc3cc(-c4ccc(-c5ccncc5)cc4)c(Cl)cc3[nH]2)ccc1C` [Example 167, 5-[6-Chloro-5-(4-pyridin-4-yl-phenyl)-1H-benzoimidazol-2-yloxy]-2-methyl-benzoic acid methyl ester] here?
**A.** > 80%

**Q.** For `Cc1ccc(Oc2nc3cc(-c4ccc5c(cnn5C)c4)c(Cl)cc3[nH]2)cc1C(=O)O` [Example 142, 5-[6-Chloro-5-(1-methyl-1H-indazol-5-yl)-1H-benzoimidazol-2-yloxy]-2-methyl-benzoic acid], which Emax is on record?
**A.** > 80%

**Q.** With `COc1ccc2cc(C#Cc3cc4nc(Oc5ccc(C)c(C(=O)O)c5)[nH]c4cc3Cl)ccc2c1` [Example 94, 5-[6-Chloro-5-(6-methoxy-naphthalen-2-ylethynyl)-1H-benzoimidazol-2-yloxy]-2-methyl-benzoic acid] as the compound, how does the Emax read?
**A.** > 80%
